Columns and labels:
[1] = system: two-component signal transduction systems (Taz system); assay: Taz-1 assay (two-component signal transduction, beta-galactosidase activity); type: cell-based, E. coli RU1012 (pYT0301); details: for reduction of beta-galactosidase activity: 3 mM aspartate, 4 hours; for inhibition of two-component signal transduction systems: no concentration stated
Procedure: The Taz-assay carried out according to the method of Jin and Inouyc (1993) with the following alterations. E. coli RU1012 (pYT0301) were grown overnight in M9 medium at 37° C. supplemented with 100 ug/ml ampicillin and 50 ug/ml kanamycin. This overnight culture was then used to inoculate 50 ml M9 medium in side-arm flasks which were then incubated at 37° C. and shaken at 180 rpm. The OD610 of the growing cultures was monitored regularly and when the OD610=0.2 the cultures were placed on ice […] to give a final concentration of 3 mM (aspartate stock solution made up in M9 salts).
The test compound or mixtures of compounds were dissolved in ethanol and added to cultures to give the required final concentrations. Negative controls were prepared with equal volumes of ethanol. Cultures were then placed in a 37° C. incubator and shaken for 4 hours (OD610 approximately 0.7) before being removed and put on ice. Samples were then removed for beta-galactosidase assays carried out according to the method of Miller (1972). Aspartate (the natural inducer of the Taz system) was used as a positive control at a concentration of 3 mmolar.

[2] = system: V. harveyi reporter strain BB170 Al-2 bioluminescence; assay: V. harveyi bioassay for the detection of Al-2 activity (bioluminescence); type: cell-based, Vibrio harveyi; details: concentration of 50 ug/ml
Procedure: The V. harveyi bioassay was performed as described previously (Surette and Bassler, 1998). The V. harveyi reporter strain BB170 was grown for 16 hours at 30° C. with shaking in AB medium. Cells were diluted 1:5,000 into 30° C. prewarmed AB medium and 90 ul of the diluted suspension was added to wells containing supernatant. Compounds to be tested were added to the wells to achieve the desired final concentrations and the final volume in each well was adjusted with sterile medium to 100 ul. Ten ul of V. harveyi BB152 (Al-1−, Al-2+) supernatant was used as a positive control and 10 ul of E. coli DH5α supernatant or sterile media was used as a negative control. […] The microtiter plates were incubated at 30° C. with shaking at 175 rpm. Hourly determinations of the total luminescence were quantified using the chemiluminescent setting on a Wallac (Gaithersburg, Md.) model 1450 Microbeta Plus liquid scintillation counter. The V. harveyi cell density was monitored by the use of a microplate reader (Bio-Rad, Hercules, Calif.). Activity is reported as the percentage of activity obtained from V. harveyi BB152 cell-free supernatant. While the absolute values of luminescence varied considerably between experiments, the pattern of results obtained was reproducible.

Staphylococcus aureus = assay: Growth of Staphylococcus aureus in sidearm flasks (absorbance 610 nm); type: cell-based
Procedure: Compounds 122 and 123 were tested against growth of Staphylococcus aureus. The experiments were performed in sidearm flasks and the growth was measured at 610 nm for 12 hours. Hundred μl of an overnight culture was added to 10 ml of growth medium. Nutrient Broth, containing furanones at concentrations 10 and 25 μg/ml. The bacteria were incubated at 37° C.

[3] = system: Pseudomonas aeruginosa (PA01 DO); assay: Attachment of Pseudomonas aeruginosa (PA01 DO), crystal violet, microtiter plate; type: cell-based; details: no concentration stated
Procedure: The experiments were performed in 96 wells microtiter plates using a volume of 200 μl. The growth medium was M9 and the plates were incubated at 37° C. One % of overnight inoculum was used and the concentrations of the compounds to be tested were 25 and 50 μg/ml. The attachment of the cells were monitored at the endpoint of the experiment which was after 24 hrs. The cells were stained with crystal violet and the absorbance was measured at 595 nm. Reduction in attachment was measured against the control (PAO1 Do ETO ) set at 100%.

Pseudomonas aeruginosa [4] = assay: Growth of Pseudomonas aeruginosa (Example 10); type: cell-based; details: 50 μg/ml; 1:9 dilution of TBY medium, 6 hrs
Procedure: (§1) The experiments were performed in 96 well microtiter plates using a volume of 100 μl. The growth medium was BHI and the plates were incubated at 37° C. One % of overnight inoculum was used and the concentration of the compound to be tested was 50 μg/ml. Both growth and attachment of the cells were monitored at the end point of the experiments which was and after 24 hrs with P. canoris. The cells were stained with crystal violet and the absorbance was measured at 595 nm.
(§2) As Example 9, but the used medium was a 1:9 dilution of TBY medium and the incubation time was 6 hrs.

Porphyromonas canoris [5] = assay: Attachment of Porphyromonas canoris (Example 9); type: cell-based; details: 50 μg/ml; BHI, 24 hrs
Procedure: as §1

Porphyromonas canoris [6] = assay: Growth of Porphyromonas canoris (Example 9); type: cell-based; details: 50 μg/ml; BHI, 24 hrs
Procedure: as §1

Pseudomonas aeruginosa [7] = assay: Attachment of Pseudomonas aeruginosa (Example 10); type: cell-based; details: 50 μg/ml; 1:9 dilution of TBY medium, 6 hrs
Procedure: as §1, §2

[8] = 25 μg/ml, Nutrient Broth, 37° C., 12 hours

With `CC(=O)/C(C)=C/Br` [Compound 80, 3-(Bromomethylene)-2-Butanone] the “reduction of beta-galactosidase activity” value ([1]; concentration of 50 ug/ml) was 75% and the “inhibition of two-component signal transduction systems” value [1] was “act as inhibitors”.
For `CCCCC(=CBr)C(C)=O` [Compound 101, 3-(Bromomethylene)-2-Heptanone], the “effect on bioluminescence activity” value [2] was “significant increase”.
For `CCC/C(=C\Br)C(C)=O` [Compound 122, 3-(Bromomethylene)-2-Hexanone], the “growth inhibition” value (Staphylococcus aureus; [8]) was “slight growth inhibition”, the “effect on attachment” value [3] was “reduce the attachment” and the “effect on bioluminescence activity” value [2] was “significant increase”.
For `CCC(=O)/C(C)=C/Br` [Compound 123, 2-(Bromomethylene)-3-Pentanone], the “effect on growth” value (Pseudomonas aeruginosa [4]) was “relatively insignificant effect”, the “growth inhibition” value (Staphylococcus aureus; 10 μg/ml, Nutrient Broth, 37° C., 12 hours) was “slight growth inhibition” and the “prolonged lagphase of growth” value (Staphylococcus aureus; [8]) was 4 h. The “growth inhibition compared to 122” value (Staphylococcus aureus; concentrations 10 and 25 μg/ml) was “more growth inhibitory”, the “effect on attachment to a surface” value (Porphyromonas canoris [5]) was “significantly limits” and the “effect on growth” value (Porphyromonas canoris [6]) was “relatively insignificant effect”. The “effect on attachment to a surface” value (Pseudomonas aeruginosa [7]) was “significantly limits”, the “reduction of beta-galactosidase activity” value ([1]; concentration of 25ug/ml) was 40% and the “inhibition of two-component signal transduction systems” value [1] was “act as inhibitors”. For the same compound, the “effect on attachment” value [3] was “reduce the attachment” and the “effect on bioluminescence activity” value [2] was “significant increase”.

From patent US20090048461A1, “Regulators of Bacterial Signalling Pathways” (Biosignal Limited, priority 2004, published 2009)
